Source: patent US20190055283A1, “AZA-PEPTIDE ALDEHYDES AND KETONES” (OHIO STATE INNOVATION FOUNDATION, priority 2016, published 2019)

Each compound was assayed against T1, caspase-3 (Homo sapiens, UniProt P42574) (assay: Caspase 3 inhibition kinetic assay). Settings: not given.
T1 construct: Professor Guy Salvesen, Burnham Institute (gift, not a purchase)
T1 sequence (P42574 29-175 limits assumed): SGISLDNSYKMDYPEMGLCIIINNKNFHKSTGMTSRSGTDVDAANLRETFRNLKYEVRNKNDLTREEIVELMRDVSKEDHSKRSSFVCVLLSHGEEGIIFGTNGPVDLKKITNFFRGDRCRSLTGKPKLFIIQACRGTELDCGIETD
Type: biochemical
Procedure: (§1) Generally, for the 20S proteasome the enzymatic hydrolysis of fluorogenic substrate Suc-LLVY-AMC by the 20S proteasome is monitored continuously for chymotrypsin-like (CT-L) activity at λexc=360, λem=460 nm for 45 min at 30° C. under standard assay conditions (Assay buffer: pH 7.5, 20 mM Tris, 0.02% w/v SDS, 1 mM EDTA, 2% v/v DMSO). Caspase activities are measured in 100 mM HEPES, 10% sucrose, 0.1% CHAPS, 10 mM DTT, pH 7.5 and 25° C.^21 Legumain activity is measured in 0.1 M citrate-phosphate buffer at pH 6.8 containing 4 mM DTT with Cbz-AAN-AMC as the substrate^9b. Activity of the MALT1 active fragment (aa325-769) is detected by cleavage of the tetra-peptide substrate LRSR-AMC (7-amino-4-methylcoumarin) that results in fluorescence emission when AMC is released. IC50 values are determined for the new compounds by dose-dependent inhibition. In parallel, well-characterized MALT1 inhibitors (e.g. Z—VRPR-FMIK, mepazine, MI-2) are used as reference compounds. Cathepsin B activity is performed in 0.1 M phosphate, 1.25 mM EDTA, 0.01% Brij, pH 6.0. Papain activity is measured in 10 mM DTT, 50 mM phosphate, pH 6.2. Trypsin activity is performed in 0.046 M Tris/HCl buffer at pH 8.1 with 0.0115 M CaCl2.
(§2) Results from kinetic assays for compounds tested against the 20S proteasome, caspase-3, and legumain are shown in Table 4, Table 5, and Table 6, respectively.
In the case of `CC(=O)C(=O)N(CC(=O)O)NC(=O)[C@@H](NC(=O)[C@H](CCC(=O)O)NC(=O)[C@H](CC(=O)O)NC(=O)OCc1ccccc1)C(C)C` [Z-Asp-Glu-Val-AAsp-COMe, (5S,8S,11S)-8-(2-carboxyethyl)-5-(carboxymethyl)-11-isopropyl-3,6,9,12-tetraoxo-14-(2-oxopropanoyl)-1-phenyl-2-oxa-4,7,10,13,14-pentaazahexadecan-16-oic acid], the IC50 is reported as 0.055 µM.
`CC(C)[C@H](NC(=O)[C@H](CCC(=O)O)NC(=O)[C@H](CC(=O)O)NC(=O)OCc1ccccc1)C(=O)N[C@H](C=O)CC(=O)O` [Z-Asp-Glu-Val-Asp-COH, reference compound] showed an IC50 of 0.0045 µM.

Each compound was assayed against T2, human 20S proteasome (Homo sapiens, UniProt P20618+P28074) (assay: Kinetic assay of 20S proteasome chymotryptic activity (Suc-LLVY-AMC)). Settings: Suc-LLVY-AMC substrate, pH 7.8, 37° C., competitive inhibition model.
T2 construct: purchased
Type: biochemical
Procedure: Kinetic assays were performed on a fluorescent 96-well plate reader with human 20S proteasome. Chymotryptic activity was measured in 20 mM HEPES, 0.5 mM EDTA, 0.037% SDS, pH 7.8 at 37° C., using 0-100 μM Suc-LLVY-AMC as the fluorogenic substrate, and […] 4.42×10^−4 mg/100 μL enzyme.
Triplicates of velocities (fluorescence vs time) were obtained at various concentrations of substrate ([…]) and aza-peptide inhibitor (0, 25, 50, 100 μM) then converted to specific activity using Lambert-Beer's law and enzyme concentration.
Enzyme specific activities were fit to a competitive inhibition model using GraphPad Prism software for nonlinear fitting.
`CC(C)C[C@H](NC(=O)OCc1ccccc1)C(=O)N[C@@H](Cc1ccccc1)C(=O)NN(CC(C)C)C(=O)C(=O)Cc1ccccc1` [Z-Leu-Phe-ALeu-COBn, Benzyl ((S)-1-(((S)-1-(2-isobutyl-2-(2-oxo-3-phenylpropanoyl)hydrazinyl)-1-oxo-3-phenylpropan-2-yl)amino)-4-methyl-1-oxopentan-2-yl)carbamate] was tested, and the Ki was 55 µM.
Work on `CC(=O)C(=O)N(C)NC(=O)[C@H](CC(C)C)NC(=O)[C@H](CC(C)C)NC(=O)OCc1ccccc1` [Z-Leu-Leu-AAla-COMe, Benzyl ((S)-4-methyl-1-(((S)-4-methyl-1-(2-methyl-2-(2-oxopropanoyl)hydrazinyl)-1-oxopentan-2-yl)amino)-1-oxopentan-2-yl)carbamate] yielded a Ki of 73 µM.
In the case of `CC(C)C[C@H](NC(=O)OCc1ccccc1)C(=O)N[C@@H](CC(C)C)C(=O)NNC(=O)C=O` [Z-Leu-Leu-AGly-COH, Benzyl ((S)-4-methyl-1-(((S)-4-methyl-1-oxo-1-(2-(2-oxoacetyl)hydrazinyl)pentan-2-yl)amino)-1-oxopentan-2-yl)carbamate], the Ki is reported as 35 µM.
`CC(=O)C(=O)N(CC(C)C)NC(=O)[C@H](CC(C)C)NC(=O)[C@H](CC(C)C)NC(=O)OCc1ccccc1` [Z-Leu-Leu-ALeu-COMe, Benzyl((S)-1-(((S)-1-(2-isobutyl-2-(2-oxopropanoyl)hydrazinyl)-4-methyl-1-oxopentan-2-yl)amino)-4-methyl-1-oxopentan-2-yl)carbamate] gave a Ki of 27 µM.
`CC(C)C[C@H](NC(=O)OCc1ccccc1)C(=O)N[C@@H](CC(C)C)C(=O)NN(CC(C)C)C(=O)C(=O)Cc1ccccc1` [Z-Leu-Leu-ALeu-COBn, Benzyl ((S)-1-(((S)-1-(2-isobutyl-2-(2-oxo-3-phenylpropanoyl)hydrazinyl)-4-methyl-1-oxopentan-2-yl)amino)-4-methyl-1-oxopentan-2-yl)carbamate] showed a Ki of 81 µM.
For `CCOC(=O)C(=O)N(CC(C)C)NC(=O)[C@H](CC(C)C)NC(=O)[C@H](CC(C)C)NC(=O)OCc1ccccc1` [Z-Leu-Leu-ALeu-COOEt, Ethyl 2-(2-(((benzyloxy)carbonyl)-L-leucyl-L-leucyl)-1-isobutylhydrazinyl)-2-oxoacetate], the “Ki (μM)” value was “weak”.
`CC(C)C[C@H](NC(=O)OCc1ccccc1)C(=O)N[C@@H](CC(C)C)C(=O)NN(C)C(=O)C=O` [Z-Leu-Leu-AAla-COH, Benzyl ((S)-4-methyl-1-(((S)-4-methyl-1-(2-methyl-2-(2-oxoacetyl)hydrazinyl)-1-oxopentan-2-yl)amino)-1-oxopentan-2-yl)carbamate] showed a Ki of 44 µM.
For `CC(C)C[C@H](NC(=O)OCc1ccccc1)C(=O)N[C@@H](CC(C)C)C(=O)NN(CC(C)C)C(=O)C=O` [Z-Leu-Leu-ALeu-COH, Benzyl ((S)-1-(((S)-1-(2-isobutyl-2-(2-oxoacetyl)hydrazinyl)-4-methyl-1-oxopentan-2-yl)amino)-4-methyl-1-oxopentan-2-yl)carbamate], the Ki was 24 µM.
For `CC(=O)C(=O)NNC(=O)[C@H](CC(C)C)NC(=O)[C@H](CC(C)C)NC(=O)OCc1ccccc1` [Z-Leu-Leu-AGly-COMe, Benzyl((S)-4-methyl-1-(((S)-4-methyl-1-oxo-1-(2-(2-oxopropanoyl)hydrazinyl)pentan-2-yl)amino)-1-oxopentan-2-yl)carbamate], the Ki was 29 µM.
`CC(=O)C(=O)N(CC(C)C)NC(=O)[C@H](Cc1ccccc1)NC(=O)[C@H](CC(C)C)NC(=O)OCc1ccccc1` [Z-Leu-Phe-ALeu-COMe, Benzyl((S)-1-(((S)-1-(2-isobutyl-2-(2-oxopropanoyl)hydrazinyl)-1-oxo-3-phenylpropan-2-yl)amino)-4-methyl-1-oxopentan-2-yl)carbamate] gave a Ki of 47 µM.

The compounds below were run against legumain (assay: Legumain inhibition kinetic assay). Settings: not given.
Type: biochemical
Procedure: as §1, §2
`C[C@H](NC(=O)OCc1ccccc1)C(=O)N[C@@H](C)C(=O)NN(CC(N)=O)C(=O)C(=O)Cc1ccccc1` [Z-Ala-Ala-AAsn-COBn, Benzyl((S)-1-(((S)-1-(2-(2-amino-2-oxoethyl)-2-(2-oxo-3-phenylpropanoyl) hydrazinyl)-1-oxopropan-2-yl)amino)-1-oxopropan-2-yl)carbamate] was tested, and the “Ki (μM)” value was “Weak”.
In the case of `CCOC(=O)C(=O)N(CC(N)=O)NC(=O)[C@H](C)NC(=O)[C@H](C)NC(=O)OCc1ccccc1` [Z-Ala-Ala-AAsn-COOEt, Ethyl 2-(1-(2-amino-2-oxoethyl)-2-(((benzyloxy)carbonyl)-L-alanyl-L-alanyl)hydrazinyl)-2-oxoacetate], the “Ki (μM)” value is reported as “Weak”.
In the case of `CC(=O)C(=O)N(CC(N)=O)NC(=O)[C@H](C)NC(=O)[C@H](C)NC(=O)OCc1ccccc1` [Z-Ala-Ala-AAsn-COMe, Benzyl ((S)-1-(((S)-1-(2-(2-amino-2-oxoethyl)-2-(2-oxopropanoyl)hydrazinyl)-1-oxopropan-2-yl)amino)-1-oxopropan-2-yl)carbamate], the “Ki (μM)” value is reported as “Weak”.
